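96-well plates; 48 h exposure; 5 concentrations. Endpoints by linear interpolation between flanking doses. Not reached: highest tested concentration assigned. TGI is the concentration that stops growth completely.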
Experiments:
Test in all cases: NCI tumour cell line growth inhibition, 48 h
TK-10 renal = tested on: TK-10 renal
SF-268 CNS = tested on: SF-268 CNS
DLD-1 colon = tested on: DLD-1 colon
786-0 renal = tested on: 786-0 renal
KM20L2 colon = tested on: KM20L2 colon
SNB-75 CNS = tested on: SNB-75 CNS
K-562 leukemia = tested on: K-562 leukemia
M14 melanoma = tested on: M14 melanoma
U251 CNS = tested on: U251 CNS
UACC-62 melanoma = tested on: UACC-62 melanoma
SK-MEL-28 melanoma = tested on: SK-MEL-28 melanoma
EKVX NSCLC = tested on: EKVX NSCLC
MALME-3M melanoma = tested on: MALME-3M melanoma
LOX IMVI melanoma = tested on: LOX IMVI melanoma
OVCAR-8 ovarian = tested on: OVCAR-8 ovarian
UACC-257 melanoma = tested on: UACC-257 melanoma
DMS 114 small cell lung = tested on: DMS 114 small cell lung
DMS 273 small cell lung = tested on: DMS 273 small cell lung
HOP-92 NSCLC = tested on: HOP-92 NSCLC
HT29 colon = tested on: HT29 colon
NCI-H23 lung = tested on: NCI-H23 lung
A549 NSCLC = tested on: A549 NSCLC
RXF 393 renal = tested on: RXF 393 renal
SR leukemia = tested on: SR leukemia
MOLT-4 leukemia = tested on: MOLT-4 leukemia
OVCAR-5 ovarian = tested on: OVCAR-5 ovarian
SF-295 CNS = tested on: SF-295 CNS
NCI-H460 lung = tested on: NCI-H460 lung
HL-60(TB) leukemia = tested on: HL-60(TB) leukemia
ACHN renal = tested on: ACHN renal
OVCAR-3 ovarian = tested on: OVCAR-3 ovarian
XF 498 CNS = tested on: XF 498 CNS
SNB-19 CNS = tested on: SNB-19 CNS
A498 renal = tested on: A498 renal
CCRF-CEM leukemia = tested on: CCRF-CEM leukemia
LXFL 529 NSCLC = tested on: LXFL 529 NSCLC
SN12C renal = tested on: SN12C renal
SNB-78 CNS = tested on: SNB-78 CNS
COLO 205 colon = tested on: COLO 205 colon
IGROV1 ovarian = tested on: IGROV1 ovarian
HCC-2998 colon = tested on: HCC-2998 colon
NCI-H226 lung = tested on: NCI-H226 lung
SF-539 CNS = tested on: SF-539 CNS
RPMI-8226 leukemia = tested on: RPMI-8226 leukemia
SW-620 colon = tested on: SW-620 colon
UO-31 renal = tested on: UO-31 renal
HCT-116 colon = tested on: HCT-116 colon
SK-MEL-2 melanoma = tested on: SK-MEL-2 melanoma
SK-OV-3 ovarian = tested on: SK-OV-3 ovarian
SK-MEL-5 melanoma = tested on: SK-MEL-5 melanoma
M19-MEL melanoma = tested on: M19-MEL melanoma
HOP-62 NSCLC = tested on: HOP-62 NSCLC
HOP-18 NSCLC = tested on: HOP-18 NSCLC
HCT-15 colon = tested on: HCT-15 colon
CAKI-1 renal = tested on: CAKI-1 renal
OVCAR-4 ovarian = tested on: OVCAR-4 ovarian
KM12 colon = tested on: KM12 colon
NCI-H522 lung = tested on: NCI-H522 lung
RXF-631 renal = tested on: RXF-631 renal

With `C(=C\c1ccc2ccccc2c1Nc1ccccc1)/c1ccccc1` as the molecule, how does the TGI (TK-10 renal) read?
The TGI was > 100 µM.

And the TGI (SF-268 CNS)?
Its TGI is > 100 µM.

What about the TGI (DLD-1 colon) of the same molecule?
The TGI was > 100 µM.

And the TGI (786-0 renal)?
Its TGI is 33.9 µM.

What about the TGI (KM20L2 colon) of the same molecule?
Its TGI is > 100 µM.

What about the TGI (SNB-75 CNS) of the same molecule?
The TGI was 39.9 µM.

And the TGI (K-562 leukemia)?
Its TGI is 26.1 µM.

And the TGI (M14 melanoma)?
Its TGI is 49.6 µM.

What about the TGI (U251 CNS) of the same molecule?
Its TGI is > 64.1 µM.

What about the TGI (UACC-62 melanoma) of the same molecule?
The TGI was > 100 µM.

What about the TGI (SK-MEL-28 melanoma) of the same molecule?
Its TGI is > 88.2 µM.

And the TGI (EKVX NSCLC)?
The TGI was > 100 µM.

And the TGI (MALME-3M melanoma)?
Its TGI is > 78.8 µM.

What about the TGI (LOX IMVI melanoma) of the same molecule?
The TGI was > 100 µM.

What about the TGI (OVCAR-8 ovarian) of the same molecule?
The TGI was 81.1 µM.

And the TGI (UACC-257 melanoma)?
The TGI was > 100 µM.

What about the TGI (DMS 114 small cell lung) of the same molecule?
Its TGI is > 100 µM.

And the TGI (DMS 273 small cell lung)?
Its TGI is > 100 µM.

What about the TGI (HOP-92 NSCLC) of the same molecule?
The TGI was 45.5 µM.

What about the TGI (HT29 colon) of the same molecule?
Its TGI is > 100 µM.

And the TGI (NCI-H23 lung)?
The TGI was > 87.6 µM.

And the TGI (A549 NSCLC)?
The TGI was > 100 µM.

What about the TGI (RXF 393 renal) of the same molecule?
The TGI was 37.6 µM.

What about the TGI (SR leukemia) of the same molecule?
Its TGI is 33.6 µM.

What about the TGI (MOLT-4 leukemia) of the same molecule?
The TGI was 36.9 µM.

What about the TGI (OVCAR-5 ovarian) of the same molecule?
Its TGI is > 100 µM.

What about the TGI (SF-295 CNS) of the same molecule?
The TGI was > 100 µM.

And the TGI (NCI-H460 lung)?
The TGI was > 59.2 µM.

What about the TGI (HL-60(TB) leukemia) of the same molecule?
The TGI was > 100 µM.

And the TGI (ACHN renal)?
The TGI was > 63.9 µM.

What about the TGI (OVCAR-3 ovarian) of the same molecule?
The TGI was 60.4 µM.

What about the TGI (XF 498 CNS) of the same molecule?
The TGI was 40.6 µM.

And the TGI (SNB-19 CNS)?
Its TGI is > 90.5 µM.

And the TGI (A498 renal)?
Its TGI is 47.6 µM.

And the TGI (CCRF-CEM leukemia)?
The TGI was 30.5 µM.

And the TGI (LXFL 529 NSCLC)?
Its TGI is > 100 µM.

What about the TGI (SN12C renal) of the same molecule?
The TGI was > 100 µM.

What about the TGI (SNB-78 CNS) of the same molecule?
Its TGI is > 91.8 µM.

And the TGI (COLO 205 colon)?
The TGI was > 100 µM.

What about the TGI (IGROV1 ovarian) of the same molecule?
The TGI was > 100 µM.

And the TGI (HCC-2998 colon)?
Its TGI is > 100 µM.

And the TGI (NCI-H226 lung)?
The TGI was > 100 µM.

What about the TGI (SF-539 CNS) of the same molecule?
The TGI was > 100 µM.

What about the TGI (RPMI-8226 leukemia) of the same molecule?
The TGI was > 72.5 µM.

What about the TGI (SW-620 colon) of the same molecule?
The TGI was > 100 µM.

And the TGI (UO-31 renal)?
The TGI was > 72.2 µM.

What about the TGI (HCT-116 colon) of the same molecule?
The TGI was 46.4 µM.

What about the TGI (SK-MEL-2 melanoma) of the same molecule?
Its TGI is > 100 µM.

What about the TGI (SK-OV-3 ovarian) of the same molecule?
Its TGI is > 83 µM.

And the TGI (SK-MEL-5 melanoma)?
The TGI was > 100 µM.

And the TGI (M19-MEL melanoma)?
Its TGI is > 100 µM.

And the TGI (HOP-62 NSCLC)?
The TGI was 62.5 µM.

And the TGI (HOP-18 NSCLC)?
Its TGI is > 88.1 µM.

And the TGI (HCT-15 colon)?
The TGI was > 100 µM.

And the TGI (CAKI-1 renal)?
The TGI was > 83.8 µM.

And the TGI (OVCAR-4 ovarian)?
The TGI was 23.2 µM.

What about the TGI (KM12 colon) of the same molecule?
Its TGI is > 100 µM.

What about the TGI (NCI-H522 lung) of the same molecule?
Its TGI is > 100 µM.

Which results are given for `CN(C(=O)C12C3C4C1C1C2C3C41C#N)C(C)(C)C` (stereo unspecified)?
TGI (TK-10 renal): > 100 µM; TGI (SF-268 CNS): > 100 µM; TGI (DLD-1 colon): > 100 µM; TGI (786-0 renal): > 100 µM; TGI (KM20L2 colon): > 100 µM; TGI (SNB-75 CNS): > 100 µM; TGI (K-562 leukemia): > 100 µM; TGI (M14 melanoma): > 100 µM; TGI (U251 CNS): > 100 µM; TGI (UACC-62 melanoma): > 100 µM; TGI (SK-MEL-28 melanoma): > 100 µM; TGI (EKVX NSCLC): > 100 µM; TGI (MALME-3M melanoma): > 100 µM; TGI (LOX IMVI melanoma): > 100 µM; TGI (OVCAR-8 ovarian): > 100 µM; TGI (UACC-257 melanoma): > 100 µM; TGI (DMS 114 small cell lung): > 100 µM; TGI (DMS 273 small cell lung): > 100 µM; TGI (HT29 colon): > 100 µM; TGI (NCI-H23 lung): > 100 µM; TGI (A549 NSCLC): > 100 µM; TGI (MOLT-4 leukemia): > 100 µM; TGI (OVCAR-5 ovarian): > 100 µM; TGI (SF-295 CNS): > 100 µM; TGI (NCI-H460 lung): > 100 µM; TGI (HL-60(TB) leukemia): > 100 µM; TGI (ACHN renal): > 100 µM; TGI (OVCAR-3 ovarian): > 100 µM; TGI (SNB-19 CNS): > 100 µM; TGI (A498 renal): > 100 µM; TGI (CCRF-CEM leukemia): > 100 µM; TGI (LXFL 529 NSCLC): > 100 µM; TGI (SN12C renal): > 100 µM; TGI (SNB-78 CNS): > 100 µM; TGI (COLO 205 colon): > 100 µM; TGI (IGROV1 ovarian): > 100 µM; TGI (HCC-2998 colon): > 100 µM; TGI (RXF-631 renal): > 100 µM; TGI (NCI-H226 lung): > 100 µM; TGI (SF-539 CNS): > 100 µM; TGI (RPMI-8226 leukemia): > 100 µM; TGI (SW-620 colon): > 100 µM; TGI (UO-31 renal): > 100 µM; TGI (HCT-116 colon): > 100 µM; TGI (SK-MEL-2 melanoma): > 100 µM; TGI (SK-OV-3 ovarian): > 100 µM; TGI (SK-MEL-5 melanoma): > 100 µM; TGI (M19-MEL melanoma): > 100 µM; TGI (HOP-62 NSCLC): > 100 µM; TGI (CAKI-1 renal): > 100 µM; TGI (OVCAR-4 ovarian): > 100 µM; TGI (KM12 colon): > 100 µM; TGI (NCI-H522 lung): > 100 µM

Reference: PubChem BioAssay (NCI)
